Assay results as given in ChEMBL document CHEMBL3137667, “[Drug-induced liver injury; fourteenth updated edition of the bibliographic database of liver injuries and related drugs]” (Gastroenterol Clin Biol, 2004).

Tests used:
[1] = Highest frequency of moderate liver toxicity observed during clinical trials, expressed as a percentage. [column '% BIOL' in source]; conditions: human
[2] = Highest frequency of acute liver toxicity observed during clinical trials, expressed as a percentage. [column '% AIGUE' in source]; conditions: human
[3] = human, serum
[4] = human, serum; remark: listed apart in the source
[5] = human
[6] = human; remark: listed apart in the source
[7] = human; remark: listed apart in the source
[8] = human, serum, 4383 h
[9] = human; remark: listed apart in the source
[10] = human; remark: listed apart in the source
[11] = human; remark: listed apart in the source
[12] = human; remark: listed apart in the source
[13] = human; remark: listed apart in the source
[14] = human; remark: listed apart in the source
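Throughout, for Hepatotoxicity (association with vascular disease): count of indexed literature references reporting vascular liver injury in humans, e.g. peliosis hepatitis, hepatic veno-occlusive disease or Budd-Chiari syndrome.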
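Throughout, for Hepatotoxicity (benign tumour): value is a count of indexed literature references citing a benign tumour confirmed by histopathology.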
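Throughout, for Hepatotoxicity (choleostasis): human cholestatic liver injury, shown by histopathology or by peak ALT or AST elevation over alkaline phosphatase ratio below 2, value counts indexed literature reports.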
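Throughout, for Hepatotoxicity (chronic liver disease): chronic liver injury confirmed by histopathology or persistently raised serum aminotransferase activity beyond 6 months, value given as the count of indexed literature references.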
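Throughout, for Hepatotoxicity (cirrhosis): value is a count of indexed literature references reporting cirrhosis confirmed by histopathology.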
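Throughout, for Hepatotoxicity (cytolytic): human cytolytic liver injury, shown by histopathology or by a ratio above 5 of peak ALT or AST elevation to alkaline phosphatase elevation, value counts indexed references.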
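Throughout, for Hepatotoxicity (granulomatous hepatitis): value is a count of indexed literature references reporting granulomatous liver disease confirmed by histopathology.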
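Throughout, for Hepatotoxicity (malignant tumour): malignant tumour confirmed by histopathology, value gives the count of indexed literature references reporting it.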
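Throughout, for Hepatotoxicity (severe hepatitis): human clinical data: severe hepatitis, meaning potentially life-threatening liver failure or clinically observed cases, the value counts how many indexed literature references report it.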
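Throughout, for Hepatotoxicity (steatosis): steatosis confirmed by histopathology, value is the count of indexed references.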

SMILES | Hepatotoxicity (moderate) [1] [%] | Hepatotoxicity (acute) [2] [%] | Hepatotoxicity (moderate) [3] | Hepatotoxicity (acute) [4] | Hepatotoxicity (cytolytic) [5] | Hepatotoxicity (choleostasis) [6] | Hepatotoxicity (severe hepatitis) [7] | Hepatotoxicity (chronic liver disease) [8] | Hepatotoxicity (cirrhosis) [9] | Hepatotoxicity (granulomatous hepatitis) [10] | Hepatotoxicity (association with vascular disease) [11] | Hepatotoxicity (steatosis) [12] | Hepatotoxicity (malignant tumour) [13] | Hepatotoxicity (benign tumour) [14]
O=C(O)[C@@H](S)[C@@H](S)C(=O)O | 56.7 | 0 | 3 | 0 | 0 | 0 | 0 | 0 | 0 | 0 | 0 | 0 | 0 | 0
CO[C@@H]1O[C@H](CO)[C@H](O)[C@H](O[C@@H]2O[C@@H](C(=O)O)[C@@H](OC)[C@H](O)[C@H]2O)[C@H]1NC(C)=O | 0 | 0 | 1 | 0 | 0 | 0 | 0 | 0 | 0 | 0 | 0 | 0 | 0 | 0
O=C(Nc1cccc2c(=O)cc(-c3nnn[nH]3)oc12)c1ccc(OCCCCc2ccccc2)cc1 | 2.1 | 0 | 1 | 0 | 0 | 0 | 0 | 0 | 0 | 0 | 0 | 0 | 0 | 0
CC(=O)N[C@@H]1[C@H](Oc2c3cc4cc2Oc2ccc(cc2Cl)[C@@H](O[C@@H]2O[C@@H](CO)[C@@H](O)[C@H](O)[C@@H]2NC(C)=O)[C@@H]2NC(=O)[C@H](NC(=O)[C@@H]4NC(=O)[C@H]4NC(=O)[C@@H](Cc5ccc(c(Cl)c5)O3)NC(=O)[C@H](N)c3ccc(O)c(c3)Oc3cc(O)cc4c3)c3ccc(O)c(c3)-c3c(O[C@H]4O[C@H](CO)[C@@H](O)[C@@H](O)[C@@H]4O)cc(O)cc3[C@@H](C(=O)O)NC2=O)O[C@@H](CO)[C@@H](O)[C@@H]1O | 26.9 | 0.9 | 36 | 4 | 1 | 1 | 0 | 0 | 0 | 0 | 0 | 0 | 0 | 0
CNC(=O)[C@@H](NC(=O)[C@H](CC(C)C)[C@H](O)C(=O)NO)C(C)(C)C | 0 | 0 | 1 | 0 | 0 | 0 | 0 | 0 | 0 | 0 | 0 | 0 | 0 | 0
CC(CCC(=O)O)C1CC[C@H]2[C@@H]3CC[C@@H]4C[C@H](O)CC[C@]4(C)[C@H]3CC[C@]12C (stereo not given in full) | 11.1 | 0 | 1 | 0 | 0 | 0 | 0 | 0 | 0 | 0 | 0 | 0 | 0 | 0
CC(OC(=O)OC1CCCCC1)OC(=O)C1=C(CSc2nnnn2CCN(C)C)CS[C@@H]2[C@H](NC(=O)Cc3csc(N)n3)C(=O)N12 (stereo not given in full) | 28.6 | 0 | 25 | 0 | 0 | 0 | 0 | 0 | 0 | 0 | 0 | 0 | 0 | 0
CO/N=C(\C(=O)N[C@@H]1C(=O)N2C(C(=O)OCOC(=O)C(C)(C)C)=C(Cn3nnc(C)n3)CS[C@H]12)c1csc(N)n1 | 3.3 | 0 | 9 | 0 | 0 | 0 | 0 | 0 | 0 | 0 | 0 | 0 | 0 | 0
CN1CC[C@@H]2Nc3ccccc3[C@@H]2C1.Cl.Cl | 0 | 0 | 0 | 1 | 0 | 1 | 0 | 0 | 0 | 0 | 0 | 0 | 0 | 0
CC(=N)N1CC[C@H](SC2=C(C(=O)O)N3C(=O)[C@H]([C@@H](C)O)[C@H]3C2)C1.O=C(O)CCNC(=O)c1ccccc1 | 38.5 | 0 | 60 | 1 | 0 | 1 | 0 | 0 | 0 | 0 | 0 | 0 | 0 | 0
CCc1nc(N)nc(N)c1-c1ccc(Cl)cc1.Nc1ccc(S(=O)(=O)c2ccc(N)cc2)cc1 | 25.3 | 2.9 | 1 | 3 | 1 | 0 | 0 | 0 | 0 | 0 | 0 | 0 | 0 | 0
COc1ccc(/C=C/C(=O)Nc2ccccc2C(=O)O)cc1OC | 7.5 | 0 | 6 | 1 | 0 | 0 | 0 | 0 | 0 | 0 | 0 | 0 | 0 | 0
CCN1CCN(C(=O)N[C@@H](C(=O)N[C@@H]2C(=O)N3[C@@H]2SC(C)(C)[C@@H]3C(=O)O)c2ccccc2)C(=O)C1=O.C[C@]1(Cn2ccnn2)[C@H](C(=O)O)N2C(=O)C[C@H]2S1(=O)=O | 33.3 | 0 | 46 | 0 | 0 | 0 | 0 | 0 | 0 | 0 | 0 | 0 | 0 | 0
CCOC(=O)[C@H](CCc1ccccc1)N[C@@H](C)C(=O)N(CC(=O)O)C1Cc2ccccc2C1 | 1.1 | 0 | 1 | 0 | 0 | 0 | 0 | 0 | 0 | 0 | 0 | 0 | 0 | 0
[Se] | 0 | 0 | 0 | 0 | 0 | 0 | 0 | 0 | 0 | 0 | 0 | 1 | 0 | 0
